Experimental data from article PMC9450956 (Science translational medicine, 2021).

Tests used:
[1] = test system: NSCLC A549 and colon cancer HCT116 xenografts; assay: Cancer cell line-derived subcutaneous xenografts; type: in vivo, mice; settings: intraperitoneal, once per day for 14 days
[2] = test system: SUMO1-CDK6, SUMO1-RanGAP1, and SUMO3-RanGAP1 conjugation; assay: In vitro sumoylation assay; type: biochemical; settings: CDK6 and RanGap1 as substrates
[3] = test system: LN229-derived brain xenografts; assay: LN229-derived intracranial brain xenografts, survival; type: in vivo, mice; settings: intraperitoneal, once per day for 14 days; Kaplan-Meier
[4] = test system: SUMO1; assay: SUMO1 target engagement in colon cancer PDX mice; type: in vivo; settings: intraperitoneal once per day for 3 days, dose-dependent
[5] = test system: human colon, breast carcinoma, and NSCLC PDXs; assay: Cancer PDX mouse models, tumor progression and survival; type: in vivo, mice; settings: for progression of PDXs: intraperitoneal, once per day for 14 days
[6] = test system: SUMO1; assay: Western and dot blots for SUMO1 in LN229 cells; type: cell-based, human; settings: 72 hours
[7] = test system: SUMO1 mRNA; assay: SUMO1 mRNA expression in LN229 cells; type: cell-based, human; settings: LN229 cancer cells
[8] = target: T1, cellular CAPRIN1 (Homo sapiens, UniProt Q14444); assay: HB007-biotin pull-down competition with cell lysates, immunoblot; type: binding; settings: free compound added to cell lysates
T1 sequence (Q14444 1-709): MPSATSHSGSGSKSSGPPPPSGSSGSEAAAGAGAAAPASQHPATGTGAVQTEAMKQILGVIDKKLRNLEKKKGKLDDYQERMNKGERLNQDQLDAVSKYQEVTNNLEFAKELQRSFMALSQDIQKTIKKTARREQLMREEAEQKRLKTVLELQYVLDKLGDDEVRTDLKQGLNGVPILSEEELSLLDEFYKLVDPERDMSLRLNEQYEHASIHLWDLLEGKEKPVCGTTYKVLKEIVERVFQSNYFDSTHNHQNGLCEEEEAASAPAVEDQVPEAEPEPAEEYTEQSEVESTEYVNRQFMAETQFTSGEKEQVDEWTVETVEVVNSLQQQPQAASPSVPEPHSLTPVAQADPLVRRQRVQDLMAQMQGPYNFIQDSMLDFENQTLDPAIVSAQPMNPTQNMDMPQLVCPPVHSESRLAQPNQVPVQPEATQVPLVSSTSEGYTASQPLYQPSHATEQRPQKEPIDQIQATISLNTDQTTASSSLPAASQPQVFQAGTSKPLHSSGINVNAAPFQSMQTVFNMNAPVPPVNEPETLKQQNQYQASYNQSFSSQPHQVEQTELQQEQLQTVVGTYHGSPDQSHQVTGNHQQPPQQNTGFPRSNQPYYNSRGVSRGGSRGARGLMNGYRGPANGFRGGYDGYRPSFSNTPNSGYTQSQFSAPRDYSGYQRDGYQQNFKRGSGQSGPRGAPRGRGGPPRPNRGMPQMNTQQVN

[9] = test system: SUMO1; assay: Western and dot blots for SUMO1 in HCT116 cells; type: cell-based, human; settings: gradually over about 24 hours
[10] = target: histamine H2 (Homo sapiens, UniProt P25021); assay: LeadProfilingScreen selectivity profiling; type: binding; settings: 10 μM
Chain of histamine H2 (P25021 whole entry): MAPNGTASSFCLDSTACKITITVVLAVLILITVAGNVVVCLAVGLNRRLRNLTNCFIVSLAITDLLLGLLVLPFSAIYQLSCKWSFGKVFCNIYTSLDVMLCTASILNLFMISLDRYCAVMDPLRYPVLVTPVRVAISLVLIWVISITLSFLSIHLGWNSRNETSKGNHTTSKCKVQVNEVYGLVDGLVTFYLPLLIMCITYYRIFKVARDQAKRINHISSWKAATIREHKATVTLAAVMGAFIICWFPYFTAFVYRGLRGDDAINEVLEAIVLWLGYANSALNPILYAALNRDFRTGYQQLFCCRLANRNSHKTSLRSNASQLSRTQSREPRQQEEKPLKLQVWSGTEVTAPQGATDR

[11] = target: 5-hydroxytryptamine receptor 2B (5-HT2B) (Homo sapiens, UniProt P41595); assay: LeadProfilingScreen selectivity profiling; type: binding; settings: 10 μM
Chain of 5-hydroxytryptamine receptor 2B (5-HT2B) (P41595 whole entry): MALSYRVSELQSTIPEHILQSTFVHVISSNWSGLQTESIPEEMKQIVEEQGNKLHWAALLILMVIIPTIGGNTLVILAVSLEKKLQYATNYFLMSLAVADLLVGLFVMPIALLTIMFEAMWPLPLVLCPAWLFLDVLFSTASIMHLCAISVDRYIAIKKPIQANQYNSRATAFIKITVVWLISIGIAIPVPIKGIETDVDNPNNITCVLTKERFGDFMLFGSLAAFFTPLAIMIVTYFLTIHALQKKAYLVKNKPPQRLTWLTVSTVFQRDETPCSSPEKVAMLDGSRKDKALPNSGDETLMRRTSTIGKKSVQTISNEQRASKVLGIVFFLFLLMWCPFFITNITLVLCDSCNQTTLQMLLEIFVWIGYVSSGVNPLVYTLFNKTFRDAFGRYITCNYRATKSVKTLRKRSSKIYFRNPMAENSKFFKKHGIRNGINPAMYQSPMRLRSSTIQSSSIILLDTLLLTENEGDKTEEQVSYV

[12] = target: human ether-a-go-go–related gene (Homo sapiens, UniProt Q12809); assay: LeadProfilingScreen selectivity profiling; type: binding; settings: 10 μM
Chain of human ether-a-go-go–related gene (Q12809 whole entry): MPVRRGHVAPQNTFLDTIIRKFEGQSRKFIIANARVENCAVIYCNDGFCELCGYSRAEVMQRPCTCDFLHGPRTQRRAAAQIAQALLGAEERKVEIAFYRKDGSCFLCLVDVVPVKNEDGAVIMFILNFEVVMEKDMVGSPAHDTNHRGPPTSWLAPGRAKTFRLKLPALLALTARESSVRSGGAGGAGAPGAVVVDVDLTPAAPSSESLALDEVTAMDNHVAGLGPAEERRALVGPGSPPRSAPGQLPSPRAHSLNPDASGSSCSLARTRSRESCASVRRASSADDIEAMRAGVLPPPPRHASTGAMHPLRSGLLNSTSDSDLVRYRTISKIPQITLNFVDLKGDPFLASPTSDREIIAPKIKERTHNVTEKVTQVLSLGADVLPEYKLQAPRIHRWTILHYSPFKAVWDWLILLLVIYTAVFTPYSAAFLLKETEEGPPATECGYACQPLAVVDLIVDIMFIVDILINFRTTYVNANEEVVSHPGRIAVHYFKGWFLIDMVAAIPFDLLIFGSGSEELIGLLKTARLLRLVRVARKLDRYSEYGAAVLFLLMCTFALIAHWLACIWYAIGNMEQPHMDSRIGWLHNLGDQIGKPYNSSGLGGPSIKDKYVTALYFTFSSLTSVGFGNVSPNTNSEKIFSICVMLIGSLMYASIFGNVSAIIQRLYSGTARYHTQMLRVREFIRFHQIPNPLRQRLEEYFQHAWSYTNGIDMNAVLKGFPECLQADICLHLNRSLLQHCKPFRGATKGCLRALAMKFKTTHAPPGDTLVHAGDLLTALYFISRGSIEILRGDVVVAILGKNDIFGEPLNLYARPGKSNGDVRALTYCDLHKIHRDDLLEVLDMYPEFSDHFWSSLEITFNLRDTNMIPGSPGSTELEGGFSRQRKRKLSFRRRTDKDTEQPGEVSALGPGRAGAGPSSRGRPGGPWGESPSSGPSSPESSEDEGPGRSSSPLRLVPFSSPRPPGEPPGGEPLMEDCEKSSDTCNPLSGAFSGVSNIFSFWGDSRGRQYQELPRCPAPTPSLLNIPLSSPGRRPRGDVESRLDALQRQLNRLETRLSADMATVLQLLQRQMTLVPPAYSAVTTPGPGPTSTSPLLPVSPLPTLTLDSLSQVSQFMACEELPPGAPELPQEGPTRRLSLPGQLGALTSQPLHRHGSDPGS

[13] = Oral PK of solution formulation; type: in vivo; settings: rat
[14] = Microsomal stability; type: in vitro ADME, mouse; settings: 1 μM, 45 min, LC-MS
[15] = Oral and intravenous PK of suspension; type: in vivo, rodents; settings: administered as a suspension
[16] = Microsomal stability; type: in vitro ADME, human; settings: 1 μM, 45 min, LC-MS
[17] = Intraperitoneal PK, plasma and brain; type: in vivo, NOD/SCID mice; settings: intraperitoneal injection 20 mg/kg, mice
[18] = test system: kinases, ion channels, NHRs, enzymes; assay: LeadProfilingScreen selectivity profiling; type: binding, human; settings: 10 μM
[19] = target: adenosine A2A (Homo sapiens, UniProt P29274); assay: LeadProfilingScreen selectivity profiling; type: binding; settings: 10 μM
Chain of adenosine A2A (P29274 whole entry): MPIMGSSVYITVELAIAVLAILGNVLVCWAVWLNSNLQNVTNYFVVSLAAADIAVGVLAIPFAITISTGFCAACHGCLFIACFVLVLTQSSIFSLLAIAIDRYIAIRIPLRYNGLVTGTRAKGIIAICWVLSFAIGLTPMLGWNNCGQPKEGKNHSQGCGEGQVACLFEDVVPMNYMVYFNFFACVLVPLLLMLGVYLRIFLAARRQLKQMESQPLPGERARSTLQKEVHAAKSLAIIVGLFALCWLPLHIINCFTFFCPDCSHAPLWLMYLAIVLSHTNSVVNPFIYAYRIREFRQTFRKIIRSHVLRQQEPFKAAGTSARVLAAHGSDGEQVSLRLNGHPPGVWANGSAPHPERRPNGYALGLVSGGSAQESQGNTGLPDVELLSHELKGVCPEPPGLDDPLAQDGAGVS

[20] = test system: matched normal lung, colon, breast and brain cells; assay: Cell viability, matched normal cells; type: cell-based, human; settings: compared to cancer cell lines
[21] = test system: cytochrome P450s (2C9, 2D6, and 3A4); assay: CYP inhibition in human liver microsomes; type: in vitro ADME; settings: 10 μM
[22] = test system: cancer cells; assay: Caspase-3/7 activation and caspase-3 cleavage; type: cell-based, human; settings: caspase-3 cleavage
[23] = test system: SUMO1; assay: Western blots for SUMO1 in normal lung epithelial cells; type: cell-based, human; settings: 72 hours; compared to lung cancer cells

For `O=C(Nc1ccc(Cl)c([N+](=O)[O-])c1)Nc1nc2ccccc2s1` [CPD1, 1-(1,3-benzothiazol-2-yl)-3-(4-chloro-3-nitrophenyl)urea], the xenograft growth [1] was “suppressed xenograft growth”, the “effect on in vitro SUMO conjugation” value [2] was “no effects” and the “survival of brain xenograft-bearing mice” value [3] was “increased the survival”. The “effect on SUMO1 protein in xenograft tissues” value [4] was “markedly reduced both the total amounts and conjugate SUMO1 but not SUMO2/3 protein”, the “progression of PDXs” value [5] was “effectively suppressed the progression” and the “effect on SUMO1 and SUMO2/3 protein amounts” value [6] was “reduced the conjugated and unconjugated forms and total amounts of SUMO1 but not SUMO2/3 protein”. For the same compound, the “effect on SUMO1 mRNA expression” value [7] was “no effects”.

With `N#Cc1ccc2nc(NC(=O)Nc3cccc(Cl)c3)sc2c1` [HB007] the “competitive inhibition of binding of cellular CAPRIN1 to HB007-linked biotin” value (“competitive inhibition” for short) [8] was “competitively blocked”, the “effect on SUMO1 and SUMO2/3 protein amounts” value [9] was “reduced the conjugated and total amounts of SUMO1 but not SUMO2/3 protein” and the xenograft growth [1] was “suppressed xenograft growth”. The “inhibition of histamine H2” value [10] was “some inhibition”, the “inhibition of 5-HT2B” value [11] was “some inhibition” and the “activity against human ether-a-go-go–related gene” value [12] was “no activity”. For the same compound, the “oral bioavailability in plasma” value [13] was “up to 82%”, the “effect on SUMO1 protein in xenograft tissues” value [4] was “markedly reduced both the total amounts and conjugate SUMO1 but not SUMO2/3 protein” and the “metabolic stability in mouse liver microsomes” value [14] was “sufficiently stable”. For the same compound, the “plasma concentrations after oral and intravenous administration” value [15] was “low plasma concentrations”, the “survival of PDX mice” value ([5]; BRCA1 mutant breast carcinoma and primary or metastatic colon carcinoma PDX) was “increased the survival” and the “progression of PDXs” value [5] was “effectively suppressed the progression”. The “metabolic stability in human liver microsomes” value [16] was “sufficiently stable”, the brain-to-plasma partition coefficient [17] was 0.57 and the “activity against kinases, ion channels, NHRs, enzymes” value [18] was “no activity”. The “inhibition of adenosine A2A” value [19] was “some inhibition”, the “growth inhibition of matched normal cells” value [20] was “much lower growth inhibition effects” and the “inhibition of CYP enzymes” value [21] was “did not inhibit”. The “induction of apoptotic cell death” value [22] was “did not induce apoptotic cell death” and the “effect on conjugated and total SUMO1 in normal lung epithelial cells” value [23] was “no effects”.

In the case of `O=C(Nc1ccc(Cl)cc1)Nc1nc2ccccc2s1` [compound 789482, reference compound], the “competitive inhibition” value [8] is reported as “failed to competitively inhibit”.

With `O=[N+]([O-])c1cccc2nc(Nc3ccc(Cl)cc3)sc12` [compound 11208948, reference compound] the “competitive inhibition” value [8] was “failed to competitively inhibit”.
